Experimental data from patent publication US6090785A, “Substituted N-carboxyalkylpeptidyl derivatives as antidegenerative agents” (Merck & Co., Inc., priority 1992, dated 2000).

Legend:
Assay type in all cases: biochemical
stromelysin = stromelysin (Homo sapiens, UniProt P08254); experiment: Stromelysin inhibition assay (HPLC/fluorometric determination of remaining peptide substrate); settings: SLN = stromelysin; substrate 5 μM, enzyme 1.5 nM
Experimental: Briefly the assay may be carried out by incubating for four hours the inhibitor in dimethyl sulfoxide (DMSO) and 25 μl of 0.3726 μg/ml stromelysin, then adding 60 μl of 11.24 μM substrate and incubating the resulting mixture for 18 hours. The final concentrations of the substrate is 5 μM and of the enzyme 1.5 nM. At this time 50 μl of 0.3 M H3 PO4 is added and a portion of the mixture injected onto an HPLC column and the remaining substrate determined by fluorometric detection. The area of the substrate is quantitated and is plotted as a function of the inhibitor concentration. The Ki is calculated using the following equation: [formula] where area inhibited and ^area control are integrated HPLC areas for substrate for inhibited and uninhibited reactions, respectively; [I] is the inhibitor concentration; [S] is the substrate concentration.

gelatinase = experiment: Gelatinase inhibition assay with fluorogenic Dnp-peptide substrate (method of Stack et al); settings: Gel = gelatinase
Description: (§1) The capacity of representative compounds of formula I to inhibit collagenase and gelatinase lysis may be determined using the method of M. S. Stack et al, Biol. Chem 264, 4277 (1989). In such assay, a fluorogenic substrate Dnp-Pro-Leu-Gly-Leu-Trp-Ala-D-Arg.(SEQ ID NO:2) where the "Dnp" designation indicates a "dinitrophenyl" group and this group is indicated by "Xaa" in the Sequence Listing. is used. The tryptophan fluorescence is efficiently quenched by the dinitrophenyl group but when it is hydrolyzed by collagenase or gelatinase, there is increased fluorescence with cleavage occurring at the Gly-Leu bond.
(§2) Assays were performed in 0.05M Tris, 5 mM CaCl2, 0.2M NaCl up to 20% Me2 SO, pH 7.7 at either […] or 37° C. using peptide concentrations of 2.5 to 40 μM.
(§3) After addition of enzyme to initiate the reaction, the initial rate of substrate hydrolysis is determined by monitoring the increase in fluorescence emission at 346 nm. using an excitation wavelength of 280 nm. To determine the inhibitory activity the hydrolysis is measured fluorimetrically in the presence of increasing concentrations of the inhibitor and the Ki is determined.

collagenase = biological target: T1, collagenase (Homo sapiens, UniProt P03956); experiment: Collagenase inhibition assay with fluorogenic Dnp-peptide substrate (method of Stack et al); settings: CGase = collagenase
T1 sequence (P03956 100-469): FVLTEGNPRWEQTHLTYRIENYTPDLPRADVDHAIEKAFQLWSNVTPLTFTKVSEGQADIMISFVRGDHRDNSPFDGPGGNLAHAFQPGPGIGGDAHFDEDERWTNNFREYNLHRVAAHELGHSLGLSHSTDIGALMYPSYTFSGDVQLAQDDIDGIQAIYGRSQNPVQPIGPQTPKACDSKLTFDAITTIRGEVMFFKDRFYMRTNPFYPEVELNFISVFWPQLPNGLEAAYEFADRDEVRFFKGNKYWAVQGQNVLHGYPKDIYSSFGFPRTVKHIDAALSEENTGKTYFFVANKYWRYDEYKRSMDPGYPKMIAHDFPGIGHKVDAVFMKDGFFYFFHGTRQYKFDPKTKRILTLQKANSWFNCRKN
Description: as §1, §2, §3

Chain of stromelysin (P08254 100-477): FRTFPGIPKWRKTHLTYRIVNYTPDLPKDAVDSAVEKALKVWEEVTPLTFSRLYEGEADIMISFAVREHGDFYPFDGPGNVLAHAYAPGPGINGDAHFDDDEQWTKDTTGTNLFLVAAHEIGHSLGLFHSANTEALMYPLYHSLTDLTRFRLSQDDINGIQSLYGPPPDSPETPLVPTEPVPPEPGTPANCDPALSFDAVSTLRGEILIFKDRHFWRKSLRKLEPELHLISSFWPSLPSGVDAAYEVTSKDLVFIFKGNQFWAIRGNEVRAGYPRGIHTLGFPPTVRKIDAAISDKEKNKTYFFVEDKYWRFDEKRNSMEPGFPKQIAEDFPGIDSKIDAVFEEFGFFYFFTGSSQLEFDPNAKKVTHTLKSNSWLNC

| Ki (stromelysin) | Ki (gelatinase) | Ki (collagenase) | SMILES |
| --- | --- | --- | --- |
| 0.57 µM | 0.34 µM | > 10 µM | CCCCCCCC[C@H](N[C@H](C)C(=O)O)C(=O)N[C@@H](CC(C)C)C(=O)Nc1ccccc1 [Compound 9b] |
| 0.85 µM | 0.56 µM |  | CCCCCCCCCC[C@H](N[C@H](C)C(=O)O)C(=O)N[C@@H](CC(C)C)C(=O)Nc1ccccc1 [Compound 9e] |
| 1.6 µM | 0.12 µM |  | CCCCCCCC[C@H](N[C@H](C)C(=O)O)C(=O)N[C@@H](CCCNC(=N)N)C(=O)Nc1ccccc1 [Compound 9c] |
| 0.24 µM | 0.5 µM | > 10 µM | CC(C)C[C@H](NC(=O)[C@H](CCCCCCCCCN)N[C@H](C)C(=O)O)C(=O)Nc1ccccc1 [Compound 9a] |
| 0.37 µM | 0.11 µM |  | C[C@@H](N[C@@H](CCCCCCCCCN)C(=O)N[C@@H](CCCNC(=N)N)C(=O)Nc1ccccc1)C(=O)O [Compound 9d] |
